# Data: article PMC9358681 (Biochemical pharmacology, 2022)
# “And” between values parts separate entries of the source, which are not always exact repeats. Identical values can stand only once. Like-named read-outs stand apart in the source and are kept apart here.
# How the values were obtained:
# human A2BAR [1] = biological target: T1, human A2BAR (Homo sapiens, UniProt P29275); assay: [3H]PSB-603 displacement on CHO-spap-hA2BAR membranes; type: binding
# T1 construct: host or cells: CHO-spap
# T1 sequence (P29275 1-332): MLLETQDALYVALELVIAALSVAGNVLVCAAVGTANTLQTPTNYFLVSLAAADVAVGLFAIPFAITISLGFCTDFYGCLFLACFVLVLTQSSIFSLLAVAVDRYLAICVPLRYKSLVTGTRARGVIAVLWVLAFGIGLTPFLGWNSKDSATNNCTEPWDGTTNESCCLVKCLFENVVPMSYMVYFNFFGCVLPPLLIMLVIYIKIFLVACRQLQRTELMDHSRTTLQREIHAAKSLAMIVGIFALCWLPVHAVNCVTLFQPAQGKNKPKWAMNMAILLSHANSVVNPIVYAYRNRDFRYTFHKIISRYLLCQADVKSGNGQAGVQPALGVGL
# A1 adenosine receptor [2] = biological target: T2, A1 adenosine receptor (Rattus norvegicus, UniProt P25099); assay: Radioligand binding, rat A1 ([3H]R-PIA, HEK-293); conditions: HEK-293, [3H]R-PIA
# T2 sequence (P25099 1-326): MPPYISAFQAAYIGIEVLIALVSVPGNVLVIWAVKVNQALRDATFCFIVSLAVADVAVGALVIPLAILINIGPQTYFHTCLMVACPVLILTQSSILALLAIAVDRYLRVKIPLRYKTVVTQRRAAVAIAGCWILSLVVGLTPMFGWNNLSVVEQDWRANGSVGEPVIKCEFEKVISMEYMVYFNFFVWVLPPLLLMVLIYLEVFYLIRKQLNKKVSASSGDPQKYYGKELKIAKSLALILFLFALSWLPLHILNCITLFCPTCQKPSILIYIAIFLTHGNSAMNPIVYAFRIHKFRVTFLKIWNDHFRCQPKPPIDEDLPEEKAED
# Excerpt: (§1) The A2B receptor selectivity was generally low, especially at the rat A2B receptor.
# A2B adenosine receptor [3] = biological target: T3, A2B adenosine receptor (Rattus norvegicus, UniProt P29276); assay: Radioligand binding, rat A2B ([125I]I-ABOPX, HEK-293); conditions: rat (r), HEK-293, [125I]I-ABOPX
# T3 sequence (P29276 1-332): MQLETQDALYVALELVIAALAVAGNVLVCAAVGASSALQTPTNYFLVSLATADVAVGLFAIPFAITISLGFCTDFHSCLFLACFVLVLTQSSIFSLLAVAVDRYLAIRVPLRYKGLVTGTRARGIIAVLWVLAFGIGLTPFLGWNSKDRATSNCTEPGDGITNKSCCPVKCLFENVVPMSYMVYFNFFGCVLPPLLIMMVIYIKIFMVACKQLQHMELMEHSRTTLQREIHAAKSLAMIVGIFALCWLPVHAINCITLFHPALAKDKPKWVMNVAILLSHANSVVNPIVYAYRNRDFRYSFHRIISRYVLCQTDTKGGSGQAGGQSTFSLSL
# A2A adenosine receptor [4] = biological target: A2A adenosine receptor (Rattus norvegicus, UniProt P30543); assay: Radioligand binding, rat A2A ([3H]CGS21680, HEK-293); conditions: rat (r), HEK-293, [3H]CGS21680
# human A2BAR [5] = biological target: T1, human A2BAR; assay: [3H]PSB-603 competition association assay; type: binding; conditions: for RT: RT = 1/koff, competing ligand at 1.0-fold IC50, up to 3 hr; for Kd: read-out: Kinetic KD (koff/kon)
# Description: In all radioligand binding experiments, CHO-spap-hA2BAR membranes were thawed and homogenized using an Ultra Turrax homogenizer at 24,000 rpm (IKA-Werke GmbH & Co.KG, Staufen, Germany), diluted in assay buffer to the desired concentration (10–30 μg per well or Eppendorf tube). All materials were brought to 25 °C, 30 min prior to the experiment. ZM241385 (10 μM) was used to determine nonspecific binding (NSB).
# Addition of CHO-spap-hA2BAR membrane aliquots initiated the association. The amount of receptor-bound radioligand was determined at different time points up to 3 hr. After 3 hr the incubation was terminated and samples were obtained as described under “Displacement experiments”.
# All competition association data were globally fitted.
# A2A adenosine receptor [6] = biological target: A2A adenosine receptor (Homo sapiens, UniProt P29274); assay: Radioligand binding, human A2A ([3H]CGS21680, HEK-293); conditions: HEK-293, [3H]CGS21680
# A1 adenosine receptor [7] = biological target: T4, A1 adenosine receptor (Homo sapiens, UniProt P30542); assay: Radioligand binding, human A1 ([3H]R-PIA, HEK-293); conditions: HEK-293, [3H]R-PIA
# T4 sequence (P30542 1-326): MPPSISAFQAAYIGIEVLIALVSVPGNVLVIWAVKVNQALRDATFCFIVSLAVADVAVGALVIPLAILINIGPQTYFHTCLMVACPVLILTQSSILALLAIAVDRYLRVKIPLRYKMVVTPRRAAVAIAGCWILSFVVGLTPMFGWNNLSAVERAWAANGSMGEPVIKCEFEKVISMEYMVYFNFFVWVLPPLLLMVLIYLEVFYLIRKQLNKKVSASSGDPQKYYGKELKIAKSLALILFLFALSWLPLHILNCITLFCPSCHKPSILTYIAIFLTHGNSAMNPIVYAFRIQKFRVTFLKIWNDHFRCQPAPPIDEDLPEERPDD
# Excerpt: as §1
# A2B adenosine receptor [8] = biological target: T5, A2B adenosine receptor (Homo sapiens, UniProt P29275); assay: Radioligand binding, human A2B ([125I]I-ABOPX, HEK-293); conditions: HEK-293, [125I]I-ABOPX
# T5 sequence (P29275 1-332): T1 sequence (P29275 1-332)
# A3 adenosine receptor = biological target: T6, A3 adenosine receptor (Homo sapiens, UniProt P0DMS8); assay: Radioligand binding, human A3 ([125I]I-AB-MECA, HEK-293); conditions: HEK-293, [125I]I-AB-MECA
# T6 sequence (P0DMS8 1-318): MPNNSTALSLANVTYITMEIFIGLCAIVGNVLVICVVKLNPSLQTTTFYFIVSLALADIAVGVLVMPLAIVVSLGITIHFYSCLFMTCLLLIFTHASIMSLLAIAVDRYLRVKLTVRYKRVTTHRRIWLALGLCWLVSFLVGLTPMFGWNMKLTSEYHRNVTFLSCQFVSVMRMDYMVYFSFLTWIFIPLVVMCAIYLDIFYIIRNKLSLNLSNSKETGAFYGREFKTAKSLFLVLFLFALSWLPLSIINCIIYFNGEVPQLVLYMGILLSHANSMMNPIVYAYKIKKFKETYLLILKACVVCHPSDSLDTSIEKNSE
# Excerpt: as §1
# [9] = […] [3H]PSB-603, 2 h, 25 °C, read-out: Ki (converted)
# [10] = […] [3H]PSB-603, 2 h, 25 °C, read-out: pKi (converted)
# Sequence of A2A adenosine receptor (Rattus norvegicus, UniProt P30543) (P30543 whole entry): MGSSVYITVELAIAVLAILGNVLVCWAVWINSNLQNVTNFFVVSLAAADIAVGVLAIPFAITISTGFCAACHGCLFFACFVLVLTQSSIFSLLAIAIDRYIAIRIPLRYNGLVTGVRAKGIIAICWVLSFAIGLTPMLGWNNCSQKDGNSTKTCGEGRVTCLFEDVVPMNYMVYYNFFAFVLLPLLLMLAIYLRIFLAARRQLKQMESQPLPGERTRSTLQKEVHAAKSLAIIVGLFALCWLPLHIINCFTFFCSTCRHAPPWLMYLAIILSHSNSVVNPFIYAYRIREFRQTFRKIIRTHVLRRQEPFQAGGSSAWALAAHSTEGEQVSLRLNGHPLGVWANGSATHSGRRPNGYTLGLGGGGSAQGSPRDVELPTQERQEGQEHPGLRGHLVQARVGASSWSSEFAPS
# Sequence of A2A adenosine receptor (Homo sapiens, UniProt P29274) (P29274 whole entry): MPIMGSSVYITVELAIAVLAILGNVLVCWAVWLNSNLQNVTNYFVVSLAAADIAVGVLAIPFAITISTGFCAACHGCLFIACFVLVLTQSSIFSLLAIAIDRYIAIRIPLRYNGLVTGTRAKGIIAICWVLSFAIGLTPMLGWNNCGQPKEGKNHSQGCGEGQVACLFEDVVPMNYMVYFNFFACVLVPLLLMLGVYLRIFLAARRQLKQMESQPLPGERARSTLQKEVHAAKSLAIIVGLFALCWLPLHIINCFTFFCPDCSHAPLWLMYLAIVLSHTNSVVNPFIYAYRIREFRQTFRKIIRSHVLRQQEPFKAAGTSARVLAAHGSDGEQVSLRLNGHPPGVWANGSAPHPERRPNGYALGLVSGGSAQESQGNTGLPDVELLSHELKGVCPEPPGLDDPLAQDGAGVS
Compound,Ki (human A2BAR [1]; [9]),Ki (A1 adenosine receptor [2]),Ki (A2A adenosine receptor [4]),RT (human A2BAR [5]; 25 °C),koff (human A2BAR [5]; read-out: koff (converted)),kon (human A2BAR [5]; read-out: kon (converted)),Kd (human A2BAR [5]),also measured
"CCCn1c(=O)c2[nH]c(-c3ccc(OCC(=O)NC4CC4)cc3)nc2n(CCC)c1=O [Compound 3, N-cyclopropyl-2-(4-(2,6-dioxo-1,3-dipropyl-2,3,6,7-tetrahydro-1H-purin-8-yl)phenoxy)acetamide]",36.3 nM,10.7 ± 1.75 nM,51.7 ± 19.6 nM,0.9 min and 0.9 ± 0.0 min,0.0178 s⁻¹,600000 M⁻¹ s⁻¹,–,Ki (A2B adenosine receptor [3]): 36.6 ± 5.1 nM
"CCCn1c(=O)c2[nH]c(-c3ccc(OCC(=O)Nc4cc[nH]n4)cc3)nc2n(CCC)c1=O [Compound 6, 2-(4-(2,6-dioxo-1,3-dipropyl-2,3,6,7-tetrahydro-1H-purin-8-yl)phenoxy)-N-(1H-pyrazol-3-yl)acetamide]",5480 nM,–,–,–,–,–,–,–
"CCCn1c(=O)c2[nH]c(-c3ccc(OCC(=O)Nc4cnccn4)cc3)nc2n(CCC)c1=O [Compound 10, 2-(4-(2,6-dioxo-1,3-dipropyl-2,3,6,7-tetrahydro-1H-purin-8-yl)phenoxy)-N-(pyrazin-2-yl)acetamide]",6950 nM,–,–,–,–,–,–,–
CCCn1c(=O)c2[nH]c(-c3ccc(OCC(=O)N(CC(=O)OCC)CC(=O)OCC)cc3)nc2n(CCC)c1=O [Compound 11],–,–,–,–,–,–,–,Ki (human A2BAR [1]; [10]): 112 nM
CCCn1c(=O)c2[nH]c(-c3ccc(OCC(=O)Nc4ccc(C)cc4)cc3)nc2n(CCC)c1=O [Compound 12],3.42 nM,–,–,55 ± 25 min,0.0003 s⁻¹,117000 M⁻¹ s⁻¹,2.7 ± 1.5 nM,–
CCCn1c(=O)c2[nH]c(-c3ccc(OCC(=O)Nc4ccc(C(F)(F)F)cc4)cc3)nc2n(CCC)c1=O [Compound 15],2.86 nM,–,–,–,–,–,–,"kon (human A2BAR [5]; competing ligand at 1.0-fold IC50, […] [3H]PSB-603, up to 3 hr, 25 °C): Kinetics outside the range of the assay (see text)"
CCCn1c(=O)c2[nH]c(-c3ccc(OCC(=O)Nc4ccc(C(C)=O)cc4)cc3)nc2n(CCC)c1=O [Compound 16],–,–,–,54 min and 54 ± 18 min,–,–,1.7 ± 0.58 nM,Ki (human A2BAR [1]): 3.03 nM; koff (human A2BAR [5]): 0.000317 s⁻¹; kon (human A2BAR [5]): 183000 M⁻¹ s⁻¹
CCCn1c(=O)c2[nH]c(-c3ccc(OCC(=O)NCc4ccccc4)cc3)nc2n(CCC)c1=O [Compound 19],–,5.02 nM,25.9 nM,–,–,–,–,Ki (A2A adenosine receptor [6]): 23.8 ± 5.7 nM; Ki (A1 adenosine receptor [7]): 54.7 ± 21.2 nM
CCCn1c(=O)c2[nH]c(-c3ccc(OCC(=O)NC(c4ccccc4)c4ccccc4)cc3)nc2n(CCC)c1=O [Compound 26],37.9 nM,–,–,19 ± 6.2 min,0.000883 s⁻¹,28300 M⁻¹ s⁻¹,31 ± 16 nM,–
CCCn1c(=O)c2[nH]c(-c3ccc(OCC(=O)N(Cc4ccccc4)Cc4ccccc4)cc3)nc2n(CCC)c1=O [Compound 27],–,–,–,–,–,–,–,Ki (human A2BAR [1]; [10]): 120 nM

# The next lines start with results.
Ki (human A2BAR [1]; [9]),Ki (A1 adenosine receptor [2]),Ki (A2A adenosine receptor [4]),RT (human A2BAR [5]; 25 °C),koff (human A2BAR [5]; read-out: koff (converted)),kon (human A2BAR [5]; read-out: kon (converted)),Kd (human A2BAR [5]),Compound,also measured
1350 nM,–,–,–,–,–,–,"2-(4-(2,6-dioxo-1,3-dipropyl-2,3,6,7-tetrahydro-1H-purin-8-yl) phenoxy)-N-(pyridin-4-ylmethyl)acetamide [Compound 9]","pKi (human A2BAR [1]; […] [3H]PSB-603, 2 h, 25 °C): 5.87 ± 0.16"
61400 nM,–,–,–,–,–,–,"CCCn1c(=O)c2[nH]c(-c3ccc(OCC(=O)NC4CCC4)cc3)nc2n(CCC)c1=O [Compound 4, N-cyclobutyl-2-(4-(2,6-dioxo-1,3-dipropyl-2,3,6,7-tetrahydro-1H-purin-8-yl)phenoxy)acetamide]","Ki (human A2BAR [1]; […] [3H]PSB-603, 2 h, 25 °C, read-out: affinity (Ki)): 61400 nM"
16700 nM,13.9 ± 1.8 nM,19.1 ± 5.1 nM,–,–,–,–,"CCCn1c(=O)c2[nH]c(-c3ccc(OCC(=O)NC4CCCC4)cc3)nc2n(CCC)c1=O [Compound 5, N-cyclopentyl-2-(4-(2,6-dioxo-1,3-dipropyl-2,3,6,7-tetrahydro-1H-purin-8-yl)phenoxy)acetamide]",Ki (A2B adenosine receptor [3]): 26.3 nM
951 nM,23 ± 4.1 nM,19.3 ± 6.7 nM,–,–,–,–,"CCCn1c(=O)c2[nH]c(-c3ccc(OCC(=O)NC4CCCCC4)cc3)nc2n(CCC)c1=O [Compound 7, N-cyclohexyl-2-(4-(2,6-dioxo-1,3-dipropyl-2,3,6,7-tetrahydro-1H-purin-8-yl)phenoxy)acetamide]",Ki (A2B adenosine receptor [3]): 73.5 ± 25.8 nM
1.93 nM,–,–,46 min and 46 ± 13 min,0.000367 s⁻¹,250000 M⁻¹ s⁻¹,–,CCCn1c(=O)c2[nH]c(-c3ccc(OCC(=O)Nc4ccccc4)cc3)nc2n(CCC)c1=O [Compound 8],–
–,–,–,69 min and 69 ± 2.4 min,–,–,–,CCCn1c(=O)c2[nH]c(-c3ccc(OCC(=O)Nc4ccc(C#N)cc4)cc3)nc2n(CCC)c1=O [Compound 13],–
13.5 nM,–,–,58 min and 58 ± 19 min,0.000283 s⁻¹,23300 M⁻¹ s⁻¹,12 ± 4.9 nM,CCCn1c(=O)c2[nH]c(-c3ccc(OCC(=O)Nc4ccc([N+](=O)[O-])cc4)cc3)nc2n(CCC)c1=O [Compound 14],–
9.08 nM,8.85 nM,207 nM,22 ± 3.5 min,0.000767 s⁻¹,66700 M⁻¹ s⁻¹,12 ± 4.7 nM,"CCCn1c(=O)c2[nH]c(-c3ccc(OCC(=O)NCc4ccc(C)cc4)cc3)nc2n(CCC)c1=O [Compound 20, 2-(4-(2,6-dioxo-1,3-dipropyl-2,3,6,7-tetrahydro-1H-purin-8-yl)phenoxy)-N-(4-methylbenzyl)acetamide]",Ki (A2A adenosine receptor [6]): 20.8 ± 2.4 nM; Ki (A2B adenosine receptor [3]): 486 nM; Ki (A2B adenosine receptor [8]): 8 ± 2.2 nM; Ki (A3 adenosine receptor): 140 ± 7 nM; Ki (A1 adenosine receptor [7]): 212 ± 68 nM
5.73 nM,32.7 nM,112 nM,–,0.000717 s⁻¹,117000 M⁻¹ s⁻¹,6.5 ± 3.6 nM,"CCCn1c(=O)c2[nH]c(-c3ccc(OCC(=O)NCc4ccc(Br)cc4)cc3)nc2n(CCC)c1=O [Compound 22, N-(4-bromobenzyl)-2-(4-(2,6-dioxo-1,3-dipropyl-2,3,6,7-tetrahydro-1H-purin-8-yl)phenoxy)acetamide]",Ki (A2A adenosine receptor [6]): 26.1 ± 0.4 nM; Ki (A2B adenosine receptor [8]): 6.8 ± 0.8 nM; Ki (A3 adenosine receptor): 274 ± 56 nM; Ki (A1 adenosine receptor [7]): 586 ± 250 nM
24.4 nM,–,–,–,0.00165 s⁻¹,66700 M⁻¹ s⁻¹,27 ± 7.9 nM,"CCCn1c(=O)c2[nH]c(-c3ccc(OCC(=O)NCc4ccc(O)c(O)c4)cc3)nc2n(CCC)c1=O [Compound 23, N-(3,4-dihydroxybenzyl)-2-(4-(2,6-dioxo-1,3-dipropyl-2,3,6,7-tetrahydro-1H-purin-8-yl)phenoxy)acetamide]",–
